In test [1] the test system is C. neoformans 6995. Conditions: 6995, 6 h.
Experimental: (§1) Selected Fc-peptides, or their asds, were preliminarily tested at the concentration of 100 µg/ml. […] Conventional colony forming unit (CFU) assays were performed as previously described [2]. Briefly, yeast cells from a fresh (20 h at 30°C) actively growing colony on Sabouraud Dextrose agar (SDA) (C. albicans, C. glabrata, C. neoformans) or on SDA supplemented with 1% Tween 20 (M. furfur) were suspended in 199 medium. Initial germination was induced in C. albicans cells by incubation for 1 h at 37°C with shaking. Suspensions were properly diluted to obtain approximately 500 fungal cells in 100 µl of distilled water in the presence or absence (control growth) of the synthetic Fc-peptide to be tested. Cell suspensions were incubated at 37°C for 6 h, then plated on SDA or SDA-Tween. CFU were enumerated after 48–72 h of incubation at 30°C, and peptide fungicidal activity was determined as percentage of CFU inhibition, according to the formula 100-(CFU Fc-peptide treated/CFU control growth)×100. Each assay was carried out in triplicate for statistical purposes.
(§2) EC50 was calculated by nonlinear regression analysis using Graph Pad Prism 4.01 software, San Diego, CA, USA.
Test [2] relates to C. glabrata OMNI32. Conditions: OMNI32, 6 h.
Experimental: as §1, §2
Test [3] concerns C. albicans SC5314. Conditions: SC5314, 6 h.
Experimental: as §1, §2
In test [4] the test system is M. furfur 101. Conditions: 6 h.
Experimental: as §1, §2
Test [5] deals with C. albicans AIDS68. Conditions: AIDS68, 6 h.
Experimental: as §1, §2
For test [6], the system named is C. albicans CA-6. Conditions: CA-6, 6 h.
Experimental: as §1, §2
Test [7] relates to C. albicans SA40. Conditions: SA40, 6 h.
Experimental: as §1, §2
For test [8], the system named is C. albicans UM4. Conditions: UM4, 6 h.
Experimental: as §1, §2
Test [9] relates to C. albicans AIDS68. Nature of the test: Experimental vaginal candidiasis in mice. The format is in vivo, Candida albicans. Conditions: mice infected with C. albicans AIDS68; 100 µg in PBS at 1, 24, 48 h after challenge.
Test [10] relates to C. albicans SC5314. Briefly: CFU assay, in vitro fungicidal activity. Conditions: for EC50 asd/EC50 T11F / EC50 asd/EC50 N10K: ratio of EC50 values against C. albicans SC5314; for EC50: read-out: EC50 (95% confidence intervals), scalar dilutions, 6 h at 37°C in distilled water, nonlinear regression; for EC50 / % inhibitory activity at 100 µg/ml in comparison to the control growth (water): CFU assay, C. albicans SC5314, triplicate; for % inhibitory activity at 100 µg/ml in comparison to the control growth (water): peptide 100 µg/ml, ~500 cells in 100 µl distilled water, 6 h at 37°C.
Experimental: as §1, §2

Where two headings read alike, the source gives them in different places. Ends that are not written are not given here. Peptide text beside a SMILES is read from it.

For `CC(C)C[C@H](NC(=O)[C@H](C)NC(=O)[C@H](CCC(=O)O)NC(=O)[C@@H](N)Cc1c[nH]cn1)C(=O)O` [Peptide H4L] (H-HEAL-OH; N-terminus and C-terminus assumed), the “% inhibitory activity at 100 µg/ml in comparison to the control growth (water)” value (from here on “% inhibitory activity at 100 µg/ml”) is on record as 85.08% in test [1]; 80.49% in [2]; 84.34% in [3]; 92.04% in test [4]; 59.82% in [5]; 57.04% in test [6]. The “% inhibitory activity at 100 µg/ml” value in test [7] was found to be 55.99%; in test [8] it was 64.63%.

For the compound `OC(Cn1cncn1)(Cn1cncn1)c1ccc(F)cc1F` [fluconazole], the “response of vaginal infection to treatment” value in [9] is “resistant to treatment”.

What is called EC50 is the midpoint of the concentration-response curve. As to ACRVDHRGLTF [Peptide T1A], the “% inhibitory activity at 100 µg/ml” value in test [3] was determined as 100%. In test [10], the “EC50 asd/EC50 T11F” value was determined as 0.48 and the half-maximal effective concentration (EC50) is 738 nM.

Take AQVSLTCLVK [Peptide N1A]: in test [3], a half-maximal effect (EC50) was put at 587 nM and the “% inhibitory activity at 100 µg/ml” value is 100%. Besides, the “EC50 asd/EC50 N10K” value in test [10] is 0.58.

In the case of NAVSLTCLVK [Peptide Q2A], in test [3], the half-maximal effective concentration (EC50) was 2300 nM and the “% inhibitory activity at 100 µg/ml” value is recorded as 100%. In addition, the “EC50 asd/EC50 N10K” value in test [10] was determined as 2.30.

For NQASLTCLVK [Peptide V3A], in test [3], the EC50 came to 5930 nM. Further, in test [10], the “% inhibitory activity at 100 µg/ml” value is 100% and the “EC50 asd/EC50 N10K” value was found to be 5.91.

With NQVALTCLVK [Peptide S4A], in test [3], the midpoint of the response, the EC50, lay at 2390 nM and the “% inhibitory activity at 100 µg/ml” value amounted to 100%. Also, in test [10], the “EC50 asd/EC50 N10K” value was found to be 2.38.

On to NQVSATCLVK [Peptide L5A], for which, in test [3], the EC50 worked out at 885 nM and the “% inhibitory activity at 100 µg/ml” value is 100%. Further, the “EC50 asd/EC50 N10K” value in test [10] is listed as 0.88.

As for NQVSLACLVK [Peptide T6A], in test [3], the concentration for a half-maximal effect (EC50) was 4880 nM and the “% inhibitory activity at 100 µg/ml” value is recorded as 100%. The “EC50 asd/EC50 N10K” value in test [10] came out at 4.86.

NQVSLTALVK [Peptide C7A]: in [3], the EC50 was determined as 54900 nM and the “% inhibitory activity at 100 µg/ml” value is reported as 73.41%. For the same compound, the “EC50 asd/EC50 N10K” value in [10] amounted to 54.66.

Consider NQVSLTCAVK [Peptide L8A], for which the EC50 in test [3] is 744 nM. Besides, in test [10], the “% inhibitory activity at 100 µg/ml” value stood at 100% and the “EC50 asd/EC50 N10K” value was determined as 0.74.

With NQVSLTCLAK [Peptide V9A], in test [3], the concentration giving a half-maximal response (EC50) turned out to be 1780 nM and the “% inhibitory activity at 100 µg/ml” value is given as 100%. In [10], the “EC50 asd/EC50 N10K” value stood at 1.77.

In the case of NQVSLTCLVA [Peptide K10A], in [3], the “% inhibitory activity at 100 µg/ml” value came to 0%.

With NQVSLTCLVK [Peptide N10K], the “% inhibitory activity at 100 µg/ml” value in [1], in [2], in [3], in test [4], in [5] and in test [6] was 100% in each case. For the same compound, the “% inhibitory activity at 100 µg/ml” value in [7] and in test [8] was 100% throughout.

Turning to TARVDHRGLTF [Peptide C2A], in [3], the “% inhibitory activity at 100 µg/ml” value was 79.32%. For the same compound, in test [10], the “EC50 asd/EC50 T11F” value is 21.12 and the EC50 is 32500 nM.

Regarding TCAVDHRGLTF [Peptide R3A], the “% inhibitory activity at 100 µg/ml” value in test [3] was 97.61%. For the same compound, in [10], the “EC50 asd/EC50 T11F” value worked out at 8.74 and the half-maximal effective concentration (EC50) came to 13500 nM.

Consider TCRADHRGLTF [Peptide V4A], for which the “% inhibitory activity at 100 µg/ml” value in [3] worked out at 100%. Moreover, in test [10], the “EC50 asd/EC50 T11F” value was determined as 0.74 and the concentration giving a half-maximal response (EC50) was 1130 nM.

With TCRVAHRGLTF [Peptide D5A], in [3], the “% inhibitory activity at 100 µg/ml” value was found to be 100%. Moreover, in test [10], the “EC50 asd/EC50 T11F” value is 0.26 and the EC50 came to 395 nM.

Turning to TCRVDARGLTF [Peptide H6A], in [3], the “% inhibitory activity at 100 µg/ml” value is reported as 100%. For the same compound, in [10], the “EC50 asd/EC50 T11F” value turned out to be 6.76 and the EC50 came to 10400 nM.

As for TCRVDHAGLTF [Peptide R7A], the “% inhibitory activity at 100 µg/ml” value in test [3] amounted to 100%. Further, in [10], the “EC50 asd/EC50 T11F” value is on record as 7.83 and the concentration giving a half-maximal response (EC50) is 12100 nM.

For the compound TCRVDHRALTF [Peptide G8A], the “% inhibitory activity at 100 µg/ml” value in test [3] was found to be 100%. Further, in [10], the “EC50 asd/EC50 T11F” value worked out at 1.01 and the EC50 stood at 1550 nM.

Turning to TCRVDHRGATF [Peptide L9A], the “% inhibitory activity at 100 µg/ml” value in test [3] stood at 100%. Also, in [10], the “EC50 asd/EC50 T11F” value was 1.14 and the EC50 was found to be 1750 nM.

Take TCRVDHRGLAF [Peptide T10A]: the “% inhibitory activity at 100 µg/ml” value in test [3] is 100%. Further, in test [10], the “EC50 asd/EC50 T11F” value was 0.55 and the EC50 amounted to 850 nM.

Take TCRVDHRGLTA [Peptide F11A]: the “% inhibitory activity at 100 µg/ml” value in test [3] turned out to be 100%. In test [10], the “EC50 asd/EC50 T11F” value amounted to 1.64 and the EC50 stood at 2520 nM.

For TCRVDHRGLTF [Peptide T11F], the “% inhibitory activity at 100 µg/ml” value in test [1], in test [2], in test [3], in test [4], in test [5] and in [6] was 100% in each case. Besides, the “% inhibitory activity at 100 µg/ml” value in test [7] and in [8] was 100% throughout.

(Values after PMC3312352, “Peptides of the Constant Region of Antibodies Display Fungicidal Activity” (PLoS ONE, 2012).)
